According to BindingDB's records for doi:10.1038/nchembio.1930 (Albert Einstein College of Medicine, 2015):

Assays:
Settings in all cases: 25 °C
[1] = biological target: T1, Isocitrate dehydrogenase [NADP], mitochondrial (Homo sapiens, UniProt P48735); test: Diaphorase/Resazurin Coupled Assay
T1 sequence (P48735 whole entry): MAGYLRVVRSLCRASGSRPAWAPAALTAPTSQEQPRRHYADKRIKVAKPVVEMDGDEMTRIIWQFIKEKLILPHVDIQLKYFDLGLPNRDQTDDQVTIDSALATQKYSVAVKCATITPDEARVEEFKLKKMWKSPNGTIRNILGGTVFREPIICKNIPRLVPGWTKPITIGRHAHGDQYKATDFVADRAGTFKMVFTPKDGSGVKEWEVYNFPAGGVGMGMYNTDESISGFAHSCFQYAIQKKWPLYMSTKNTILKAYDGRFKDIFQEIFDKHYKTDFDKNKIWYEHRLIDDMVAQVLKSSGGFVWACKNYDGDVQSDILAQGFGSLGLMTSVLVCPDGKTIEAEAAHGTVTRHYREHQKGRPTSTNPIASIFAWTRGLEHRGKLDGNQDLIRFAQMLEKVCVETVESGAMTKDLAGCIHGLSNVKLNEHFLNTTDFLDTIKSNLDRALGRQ
Description: (§1) For WT IDH1 and IDH2, reactions were conducted at room temperature in 384-well Greiner black microtiter plates in a total volume of 10 μL of assay buffer. […] Reactions were conducted in duplicate and run kinetically. After each addition, plates were centrifuged for 60 s to ensure complete mixing of reagents.

[2] = biological target: Isocitrate dehydrogenase [NADP], mitochondrial [R172S] (Homo sapiens, UniProt P48735, R172S); test: RapidFire-MS/MS and NADPH Assays
Description: (§2) Reactions were conducted in duplicate and quenched with final concentrations of 100 mM EDTA. After each addition plates were centrifuged for 60 s to ensure complete mixing of reagents. […] For the RapidFire-MS/MS analysis, a 0.5 μL aliquot of each well was diluted 200-fold into a separate analysis plate containing 100 μL of a f

[3] = biological target: Isocitrate dehydrogenase [NADP], mitochondrial [R140Q] (Homo sapiens, UniProt P48735, R140Q); test: RapidFire-MS/MS and NADPH Assays
Description: as §2

[4] = biological target: Isocitrate dehydrogenase [NADP] cytoplasmic (Homo sapiens, UniProt O75874); test: Diaphorase/Resazurin Coupled Assay
Description: as §1

[5] = biological target: Isocitrate dehydrogenase [NADP] cytoplasmic [R132G] (Homo sapiens, UniProt O75874, R132G); test: RapidFire-MS/MS and NADPH Assays
Description: as §2

[6] = biological target: Isocitrate dehydrogenase [NADP] cytoplasmic [R132C] (Homo sapiens, UniProt O75874, R132C); test: RapidFire-MS/MS and NADPH Assays
Description: as §2

[7] = biological target: Isocitrate dehydrogenase [NADP] cytoplasmic [R132H] (Homo sapiens, UniProt O75874, R132H); test: RapidFire-MS/MS and NADPH Assays
Description: as §2

Sequence of Isocitrate dehydrogenase [NADP], mitochondrial [R172S] (P48735 40-452 R172S limits assumed): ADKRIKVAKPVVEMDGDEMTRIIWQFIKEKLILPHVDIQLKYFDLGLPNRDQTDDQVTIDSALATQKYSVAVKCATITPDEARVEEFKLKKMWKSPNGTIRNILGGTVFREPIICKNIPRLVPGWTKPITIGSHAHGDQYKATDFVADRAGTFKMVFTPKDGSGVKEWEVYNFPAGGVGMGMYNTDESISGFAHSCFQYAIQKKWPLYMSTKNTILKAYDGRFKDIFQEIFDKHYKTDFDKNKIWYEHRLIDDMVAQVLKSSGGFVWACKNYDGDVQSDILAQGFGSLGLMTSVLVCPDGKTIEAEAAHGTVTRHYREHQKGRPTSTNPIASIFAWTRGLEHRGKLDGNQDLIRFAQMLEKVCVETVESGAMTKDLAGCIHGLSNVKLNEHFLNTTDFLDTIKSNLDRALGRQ
Sequence of Isocitrate dehydrogenase [NADP], mitochondrial [R140Q] (P48735 40-452 R140Q limits assumed): as the sequence (P48735 40-452 R172S limits assumed) above, with R101Q, S133R counted along it
Sequence of Isocitrate dehydrogenase [NADP] cytoplasmic [R132C] (O75874 2-414 R132C limits assumed): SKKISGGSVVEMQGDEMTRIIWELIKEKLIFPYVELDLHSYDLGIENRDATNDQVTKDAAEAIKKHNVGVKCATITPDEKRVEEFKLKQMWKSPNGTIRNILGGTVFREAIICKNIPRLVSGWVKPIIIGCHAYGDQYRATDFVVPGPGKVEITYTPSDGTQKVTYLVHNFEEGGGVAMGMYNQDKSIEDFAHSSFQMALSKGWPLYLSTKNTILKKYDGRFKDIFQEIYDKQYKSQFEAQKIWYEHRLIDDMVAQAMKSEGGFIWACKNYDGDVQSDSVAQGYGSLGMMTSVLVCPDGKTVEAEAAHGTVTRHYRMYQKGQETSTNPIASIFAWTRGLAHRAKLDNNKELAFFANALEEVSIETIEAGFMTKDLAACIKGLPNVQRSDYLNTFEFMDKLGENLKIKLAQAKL
Sequence of Isocitrate dehydrogenase [NADP] cytoplasmic (O75874 whole entry): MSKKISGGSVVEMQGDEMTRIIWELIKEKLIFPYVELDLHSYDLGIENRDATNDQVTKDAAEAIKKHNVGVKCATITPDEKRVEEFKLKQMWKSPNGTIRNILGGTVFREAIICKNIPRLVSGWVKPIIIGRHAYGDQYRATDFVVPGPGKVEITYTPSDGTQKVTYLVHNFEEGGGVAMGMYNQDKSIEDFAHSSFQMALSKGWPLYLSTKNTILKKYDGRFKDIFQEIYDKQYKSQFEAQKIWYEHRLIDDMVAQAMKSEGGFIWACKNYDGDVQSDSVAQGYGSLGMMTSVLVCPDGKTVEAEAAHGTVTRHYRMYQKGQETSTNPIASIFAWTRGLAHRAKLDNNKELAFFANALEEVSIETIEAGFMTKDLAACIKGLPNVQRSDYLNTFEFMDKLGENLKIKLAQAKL
Sequence of Isocitrate dehydrogenase [NADP] cytoplasmic [R132H] (O75874 2-414 R132H limits assumed): as the sequence (O75874 2-414 R132C limits assumed) above, with C131H counted along it
Sequence of Isocitrate dehydrogenase [NADP] cytoplasmic [R132G] (O75874 2-414 R132G limits assumed): as the sequence (O75874 2-414 R132C limits assumed) above, with C131G counted along it

| IC50 [1] [µM] | IC50 [2] [µM] | IC50 [3] [µM] | IC50 [4] [µM] | IC50 [5] [µM] | IC50 [6] [µM] | IC50 [7] [µM] | Structure (SMILES) |
| --- | --- | --- | --- | --- | --- | --- | --- |
| 0.496 | 1.03 | 1.36 | – | – | – | – | C[C@H](O)c1cccc(NC(=O)c2nn(Cc3ccc(F)cc3)c3c2CN(C(=O)c2ccc[nH]2)C[C@H]3C)c1 [GSK321] |
| > 100 | > 100 | > 100 | > 100 | 23.3 | 4.49 | 10.9 | Cc1cccc(NC(=O)c2nn(Cc3c[nH]cn3)c3c2CN(C(=O)c2ccc[nH]2)CC3)c1 [GSK990] |
